# Biological target: T1, BTK-WT (Homo sapiens, UniProt Q06187)
# T1 construct: purified from insect cells as a full-length construct containing an N-terminal 6X-His tag; His6 (N); made in house; host or cells: insect cells (baculovirus Sf21 in Method B)
# Test: Btk in vitro inhibitory activity (one of Method A TR-FRET, Method B electrophoretic mobility shift, Method C radiometric filter binding)
# Type: biochemical
# Conditions: Table 10, Formula A-I; read-out: BTK-WT (IC50)
# Method: Btk kinase activity is determined using a time-resolved fluorescence resonance energy transfer (TR-FRET) methodology. Measurements are performed in a reaction volume of 50 μL using 96-well assay plates. […] The reaction is quenched by the addition of 1.2 equivalents of EDTA (relative to divalent cation) in 25 μL of 1× Lance buffer (Perkin-Elmer). […] The TR-FRET signal is measured on a multimode plate reader with an excitation wavelength (λEx) of 330 nm and detection wavelengths (λEm) of 615 and 665 nm. Activity is determined by the ratio of the fluorescence at 665 nm to that at 615 nm. For each compound, enzyme activity is measured at various concentrations of compound. Negative control reactions are performed in the absence of inhibitor in replicates of six, and two no-enzyme controls are used to determine baseline fluorescence levels. Inhibition constants, Ki(app), were obtained using the program BatchKi(Kuzmic et al. (2000), Anal. Biochem. 286:45-50). IC50s are obtained according to the equation:
# IC50={Ki(app)/(1+[ATP]/Km^ATP)}+[E]total/2;
# Kinase activity is measured in vitro using electrophoretic mobility shift assay. The kinase reactions are assembled in a total volume of 25 μL in 384 well plates. […] The reaction is incubated for one hour and is quenched by the addition of 45 μL of termination buffer (100 mM HEPES, pH7.5, 0.01% Triton X-100, 30 mM EDTA). The terminated reactions are analyzed using 12 channel LabChip® 3000 microfluidic detection instrument (Caliper Life Sciences). […] Change in the relative fluorescence intensity of the substrate and product peaks is the parameter measured, reflecting enzyme activity. In the presence of an inhibitor, the ratio between product and substrate is altered: the signal of the product decreases, while the signal of the substrate increases.
# Activity in each sample is determined as the product to sum ratio (PSR): P/(S+P), where P is the peak height of the product peptide and S is the peak height of the substrate peptide. For each compound, enzyme activity is measured at various concentrations (12 concentrations of compound spaced by 3× dilution intervals). Negative control samples (0%-inhibition in the absence of inhibitor) and positive control samples (100%-inhibition, in the presence of 20 mM EDTA) are assembled in replicates of four and are used to calculate %-inhibition values for each inhibitor at each concentration. Percent inhibition (Pinh) is determined using following equation:
# Pinh=(PSR0%-PSRinh)/(PSR0%−PSR100%)*100, where PSRinh is the product sum ratio in the presence of inhibitor, PSR0% is the average product sum ration in the absence of inhibitor and PSR100% is the average product sum ratio in 100%-inhibition control samples;
# The IC50 values of inhibitors are determined by 4 parameter sigmoidal dose-response model fitting of the inhibition curves (Pinh versus inhibitor concentration) using XLfit 4 software.
# Human Btk kinase (Genbank accession # NP_000052) was purified from insect cells as a full-length construct containing an N-terminal 6X-His tag. Btk kinase activity was determined using a radiometric filter binding assay. Measurements are performed in a low μL reaction volume 384-well assay plates. […] IC50 values and curve fits were obtained using Prism (GraphPad Software).
# T1 sequence (Q06187 whole entry): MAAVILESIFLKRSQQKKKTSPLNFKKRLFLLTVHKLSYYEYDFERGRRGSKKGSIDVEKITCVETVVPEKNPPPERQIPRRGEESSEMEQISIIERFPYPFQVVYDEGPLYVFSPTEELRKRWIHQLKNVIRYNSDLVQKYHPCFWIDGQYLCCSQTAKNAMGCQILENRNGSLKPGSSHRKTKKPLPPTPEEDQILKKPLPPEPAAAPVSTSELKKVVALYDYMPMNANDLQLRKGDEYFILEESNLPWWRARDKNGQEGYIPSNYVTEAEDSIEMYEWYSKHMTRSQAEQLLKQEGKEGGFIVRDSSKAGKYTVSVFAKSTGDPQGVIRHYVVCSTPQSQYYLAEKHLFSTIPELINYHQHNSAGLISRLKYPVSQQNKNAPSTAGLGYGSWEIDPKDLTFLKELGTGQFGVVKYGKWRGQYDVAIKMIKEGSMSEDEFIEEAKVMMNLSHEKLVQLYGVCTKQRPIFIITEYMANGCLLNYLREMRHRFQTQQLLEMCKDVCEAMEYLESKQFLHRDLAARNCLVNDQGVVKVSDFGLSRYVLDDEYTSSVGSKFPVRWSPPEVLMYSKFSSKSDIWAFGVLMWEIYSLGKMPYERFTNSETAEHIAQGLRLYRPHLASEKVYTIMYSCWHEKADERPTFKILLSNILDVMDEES
row,IC50 [µM],Structure (SMILES)
1,≤ 0.1,"C=CC(=O)N[C@@H]1CCCN(c2cnc(C(N)=O)c(Nc3cc(C)ns3)n2)C1 [Example A-86, (R)-5-(3-acrylamidopiperidin-1-yl)-3-(3-methylisothiazol-5-ylamino)pyrazine-2-carboxamide]"
2,≤ 0.1,"C=CC(=O)N[C@H]1CCCN(c2cnc(C(N)=O)c(Nc3cc(C)ns3)n2)C1 [Example A-87, (S)-5-(3-acrylamidopiperidin-1-yl)-3-(3-methylisothiazol-5-ylamino)pyrazine-2-carboxamide]"
3,0.1 to 1,"C=CC(=O)N[C@@H]1CCCN(c2cnc(C(N)=O)c(Nc3cccc(-c4ncccn4)c3)n2)C1 [Example A-88, (R)-5-(3-acrylamidopiperidin-1-yl)-3-(3-(pyrimidin-2-yl)phenylamino)pyrazine-2-carboxamide]"
4,≤ 0.1,"C=CC(=O)N[C@H]1CCCN(c2cnc(C(N)=O)c(Nc3ccc(-c4ncccn4)cc3)n2)C1 [Example A-89, (S)-5-(3-acrylamidopiperidin-1-yl)-3-(4-(pyrimidin-2-yl)phenylamino)pyrazine-2-carboxamide]"
5,≤ 0.1,"C=CC(=O)N1CCCN(c2nnc(C(N)=O)c(Nc3ccc(C(C)C)cc3)n2)CC1 [Example A-90, 3-(4-acryloyl-1,4-diazepan-1-yl)-5-(4-isopropylphenylamino)-1,2,4-triazine-6-carboxamide]"

# Same assay, conditions: Table 11, Formula B-I; read-out: BTK-WT (IC50)
row,IC50 [µM],Structure (SMILES)
1,≤ 0.1,"C=CC(=O)N[C@@H]1CCC[C@@H](Nc2nnc(C(N)=O)c(Nc3ccc(C(C)C)cc3)n2)C1 (racemic) [Example B-11, 3-((1R,3R)-3-acrylamido-cyclohexylamino)-5-(4-isopropylphenylamino)-1,2,4-triazine-6-carboxamide]"
2,≤ 0.1,"C=CC(=O)N[C@H]1CCC[C@@H](Nc2nnc(C(N)=O)c(Nc3ccc(C(C)C)cc3)n2)C1 (racemic) [Example B-12, 3-((1R,3S)-3-acrylamido-cyclohexylamino)-5-(4-isopropylphenylamino)-1,2,4-triazine-6-carboxamide]"
3,≤ 0.1,"C=CC(=O)N(C)[C@H]1CC[C@H](N(C)c2cnc(C(N)=O)c(Nc3cc(C)ns3)n2)CC1 [Example B-6, 5-(methyl((1r,4r)-4-(N-methylacrylamido)cyclohexyl)amino)-3-(3-methylisothiazol-5-ylamino)pyrazine-2-carboxamide]"
4,≤ 0.1,"C=CC(=O)N[C@H]1CCCC[C@H]1Nc1nnc(C(N)=O)c(Nc2ccc(C(C)C)cc2)n1 [Example B-7, 3-((1R,2S)-2-acrylamido-cyclohexylamino)-5-(4-isopropylphenylamino)-1,2,4-triazine-6-carboxamide]"
5,≤ 0.1,"C=CC(=O)N[C@@H]1CCCC[C@H]1Nc1nnc(C(N)=O)c(Nc2ccc(C(C)C)cc2)n1 [Example B-8, 3-((1R,2R)-2-acrylamido-cyclohexylamino)-5-(4-isopropylphenylamino)-1,2,4-triazine-6-carboxamide]"
6,≤ 0.1,"C=CC(=O)N[C@H]1CCCC[C@@H]1Nc1nnc(C(N)=O)c(Nc2ccc(C(C)C)cc2)n1 [Example B-9, 3-((1S,2S)-2-acrylamido-cyclohexylamino)-5-(4-isopropylphenylamino)-1,2,4-triazine-6-carboxamide]"
7,≤ 0.1,"C=CC(=O)N[C@@H]1CCCC[C@@H]1Nc1nnc(C(N)=O)c(Nc2ccc(C(C)C)cc2)n1 [Example B-10, 3-((1S,2R)-2-acrylamido-cyclohexylamino)-5-(4-isopropylphenylamino)-1,2,4-triazine-6-carboxamide]"

# Same assay, conditions: Table 12, Formula C-I; read-out: BTK-WT (IC50)
row,IC50 [µM],Structure (SMILES)
1,≤ 0.1,"C=CC(=O)N1CCC[C@H](Nc2nnc(C(N)=O)c(Nc3ccc(C(C)C)cc3)n2)C1 [Example C-17, (S)-3-(1-acryloylpiperidin-3-ylamino)-5-(4-isopropylphenylamino)-1,2,4-triazine-6-carboxamide]"
2,0.1 to 1,"CC(C)c1ccc(Nc2nc(N[C@H]3CCCN(C(=O)CN)C3)nnc2C(N)=O)cc1 [Example C-18, (S)-3-(1-(2-aminoacetyl)piperidin-3-ylamino)-5-(4-isopropylphenylamino)-1,2,4-triazine-6-carboxamide]"
3,0.1 to 1,"C=CC(=O)NCC(=O)N1CCC[C@H](Nc2nnc(C(N)=O)c(Nc3ccc(C(C)C)cc3)n2)C1 [Example C-19, (S)-3-(1-(2-acrylamidoacetyl)piperidin-3-ylamino)-5-(4-isopropylphenylamino)-1,2,4-triazine-6-carboxamide]"
4,0.1 to 1,"CC(C)c1ccc(Nc2nc(N[C@H]3CCCN(C(=O)CCCN)C3)nnc2C(N)=O)cc1 [Example C-20, (S)-3-(1-(4-aminobutanoyl)piperidin-3-ylamino)-5-(4-isopropylphenylamino)-1,2,4-triazine-6-carboxamide]"
5,0.1 to 1,"C=CC(=O)NCCCC(=O)N1CCC[C@H](Nc2nnc(C(N)=O)c(Nc3ccc(C(C)C)cc3)n2)C1 [Example C-21, (S)-3-(1-(4-acrylamidobutanoyl)piperidin-3-ylamino)-5-(4-isopropylphenylamino)-1,2,4-triazine-6-carboxamide]"
6,≤ 0.1,"C=CC(=O)N1CCC(CNc2nnc(C(N)=O)c(Nc3ccc(C(C)C)cc3)n2)CC1 [Example C-22, 3-((1-acryloylpiperidin-4-yl)methylamino)-5-(4-isopropylphenylamino)-1,2,4-triazine-6-carboxamide]"
7,≤ 0.1,"C=CC(=O)N1CCC[C@H](N(C)c2cnc(C(N)=O)c(Nc3ccc(C(C)C)cc3)n2)C1 [Example C-23, (S)-5-((1-acryloylpiperidin-3-yl)(methyl)amino)-3-(4-isopropylphenylamino)pyrazine-2-carboxamide]"
8,≤ 0.1,"C=CC(=O)N1CCC(CN(C)c2cnc(C(N)=O)c(Nc3ccc(C(C)C)cc3)n2)CC1 [Example C-24, 5-(((1-acryloylpiperidin-4-yl)methyl)(methyl)amino)-3-(4-isopropylphenylamino)pyrazine-2-carboxamide]"
9,≤ 0.1,"C=CC(=O)N1CCC[C@H](N(C)c2cnc(C(N)=O)c(Nc3cc(-c4ccccc4)ns3)n2)C1 [Example C-25, (S)-5-((1-acryloylpiperidin-3-yl)(methyl)amino)-3-(3-phenylisothiazol-5-ylamino)pyrazine-2-carboxamide]"
10,≤ 0.1,"C=CC(=O)N1CCC[C@@H](Nc2nnc(C(N)=O)c(Nc3ccc(C(C)C)cc3)n2)C1 [Example C-26, (R)-3-(1-acryloylpiperidin-3-ylamino)-5-(4-isopropylphenylamino)-1,2,4-triazine-6-carboxamide]"
11,≤ 0.1,"C=CC(=O)N1CCC[C@@H](N(C)c2nnc(C(N)=O)c(Nc3ccc(C(C)C)cc3)n2)C1 [Example C-27, (R)-3-((1-acryloylpiperidin-3-yl)(methyl)amino)-5-(4-isopropylphenylamino)-1,2,4-triazine-6-carboxamide]"
12,≤ 0.1,"C=CC(=O)N1CCC[C@@H](Nc2nnc(C(N)=O)c(Nc3ccc(C(C)C)cc3)n2)[C@H]1C [Example C-28, 3-((2R,3R)-1-acryloyl-2-methylpiperidin-3-ylamino)-5-(4-isopropylphenylamino)-1,2,4-triazine-6-carboxamide]"
